29 molecules from patent US11447484B2, “Cyclic compound having dopamine D3 receptor antagonistic effect” (Shionogi & Co., Ltd., priority 2018, dated 2022) can be followed below.

The target in data set [1] is P-gp (human MDR1-expressing cells) (Homo sapiens (Human), UniProt P08183). The experiment in a line: P-gp substrate test. Type of data set: in vitro ADME. The conditions noted are these: efflux ratio (B→A/A→B) of MDR1-expressing cells compared with parent cells, Transwell monolayer. The procedure:
Test Example 14: P-gp Substrate Test
The compound of the present invention was added to one side of Transwell (registered trademark, CORNING) where human MDR1-expressing cells or parent cells have been monolayer-cultured. The cells were reacted for a constant time. The membrane permeability coefficients from the apical side toward the basolateral side (A→B) and from the basolateral side toward the apical side (B→A) were calculated for the MDR1-expressing cells or the parent cells, and the efflux ratio (ER; ratio of the membrane permeability coefficients of B→A and A→B) values of the MDR1-expressing cells and the parent cells were calculated. The efflux ratio (ER) values of the MDR1-expressing cells and the parent cells were compared to confirm whether or not the compound of the present invention would be a P-gp substrate.

Data set [2] deals with human recombinant D3 receptor (Homo sapiens (Human), UniProt P35462). In words: Test of binding inhibition for dopamine D3 receptor. The conditions noted are these: Jump-In HEK cell membranes, 2 nM [3H]-Methylspiperone, 120 min at 25° C.; read-out: hD3_Ki. On the procedure:
Test Example 1: Test of Binding Inhibition for Dopamine D3 Receptor
(§1) (Experimental Conditions)
Cell membranes: Jump-In HEK cell membranes expressing human recombinant D3 receptor (4 μg/well)
(§2) Buffer solution: 50 mM Tris-HCl (35409-45, Nacalai Tesque) (pH 7.4) containing 120 mM NaCl (31320-05, Nacalai Tesque), 1 mM MgCl2.6H2O (20909-55, Nacalai Tesque), 5 mM KCl (28514-75, Nacalai Tesque) and 2 mM CaCl2 (067-31, NAKARAI CHEMICALS, LTD.)
Radioligand: (final concentration) 2 nM [^3H]-Methylspiperone ([^3H—N-methyl-]-Methylspiperone, NET-856, 83.8 Ci/mmol, PerkinElmer)
Non-specific ligand: (final concentration) 10 μM Butaclamol [(+)-Butaclamol Hydrochloride, D033, Sigma]
(§3) SPA beads solution: SPA beads [WGA PVT SPA Scintillation Beads, RPNQ0001 (500 mg), RPNQ0060 (2 g), PerkinElmer] (0.2 mg/well)
(§4) Incubation time and temperature: 120 min at 25° C.
(§5) Butaclamol or the compounds of the present invention were weighed and DMSO was added to make a 10 mM solution. This solution was diluted to each concentration.
[^3H]-Methylspiperone was weighed and the buffer solution was added to make a 6 nM solution.
(§6) SPA beads were weighed and stirred in water to make a 50 mg/mL solution. Using this solution, a mixture with the cell membranes was prepared.
(§7) 225 nL of the solutions of the non-specific ligand or the compounds of the present invention at each concentration (in case of vehicle, final concentration 0.3% DMSO) were added in each well of a 384-well white/clear bottom microplate (3706, Corning). Jump-In HEK Cell membranes (final reaction amount: 4 μg protein/well), the SPA beads solution (final reaction amount: 0.2 mg/well) and the buffer solution were mixed and the mixed solution was left still for 1 hour or more at 4° C. Then, 50 μL of the mixture was added to each well of the plate. In addition, 25 μL of 6 nM [^3H]-Methylspiperone (final concentration: 2 nM) was added to each well. The plate was sealed by putting TopSeal-A 96/384 well (6050185, PerkinElmer, Inc.) on the top of the plate, mixed using stirring deaerator (Well Tornado, FK-62, Sakaki-elc.) and incubated for 120 min at 25° C. After incubation, the radioactivity of [^3H]-Methylspiperone which was bonded to D3 receptor was determined by liquid scintillation counter (1450 Microbeta, PerkinElmer) in each well. Non-specific binding was calculated based on the radioactivity of [^3H]-Methylspiperone in the presence of 10 μM non-labeled Butaclamol. The total binding was calculated using the radioactivity of [^3H]-Methylspiperone in the absence of the compounds of the present invention (vehicle). The Ki values were calculated from dose-response curves.
(§8) Binding activities of the compounds of the present invention were calculated from the following Binding Inhibition Rate (%): Inhibition Rate(%)=[1−(c−a)/(b−a)]×100 • a: Average cpm of non-specific binding • b: Average cpm of total binding • c: Cpm in the presence of each test compound

In data set [3] the target is human recombinant D2 receptor (Homo sapiens (Human), UniProt P14416). The experiment in a line: Test of binding inhibition for dopamine D2 receptor. The conditions noted are these: Jump-In HEK cell membranes, 1.2 nM [3H]-Methylspiperone, 120 min at 25° C.; read-out: hD2_Ki. The procedure: Test Example 2: Test of Binding Inhibition for Dopamine D2 Receptor
human recombinant D2 receptor, sequence (P14416 whole entry): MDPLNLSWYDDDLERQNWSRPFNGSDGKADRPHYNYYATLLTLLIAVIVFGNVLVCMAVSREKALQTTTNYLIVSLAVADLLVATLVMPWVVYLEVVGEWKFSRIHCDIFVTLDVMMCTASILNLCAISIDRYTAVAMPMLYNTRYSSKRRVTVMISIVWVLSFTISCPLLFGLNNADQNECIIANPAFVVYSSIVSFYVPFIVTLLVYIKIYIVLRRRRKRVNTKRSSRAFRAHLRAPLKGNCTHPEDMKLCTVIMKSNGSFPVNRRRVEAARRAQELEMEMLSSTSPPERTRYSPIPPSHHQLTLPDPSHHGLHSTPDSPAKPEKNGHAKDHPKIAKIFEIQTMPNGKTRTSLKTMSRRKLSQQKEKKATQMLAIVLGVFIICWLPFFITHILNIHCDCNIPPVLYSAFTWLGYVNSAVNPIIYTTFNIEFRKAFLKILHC
as §1
Cell membranes: Jump-In HEK cell membranes expressing human recombinant D2 receptor (2 μg/well)
as §2
Radioligand: (final concentration) 1.2 nM [^3H]-Methylspiperone ([^3H—N-methyl-]-Methylspiperone, NET-856, 83.8 Ci/mmol, PerkinElmer)
Non-specific ligand: (final concentration) 10 μM Butaclamol [(+)-Butaclamol Hydrochloride, D033; Sigma]
as §3, §4, §5
[^3H]-Methylspiperone was weighed and the buffer solution was added to make a 3.6 nM solution.
as §6
as §7, with “amount: 2” for “amount: 4”, “SPA bead” for “SPA beads”, “of 3.6” for “of 6”, “concentration: 1.2” for “concentration: 2”, “(6050185, PerkinElmer)” for “(6050185, PerkinElmer, Inc.)”, “to D2” for “to D3”
as §8

human recombinant D3 receptor, sequence (P35462 whole entry): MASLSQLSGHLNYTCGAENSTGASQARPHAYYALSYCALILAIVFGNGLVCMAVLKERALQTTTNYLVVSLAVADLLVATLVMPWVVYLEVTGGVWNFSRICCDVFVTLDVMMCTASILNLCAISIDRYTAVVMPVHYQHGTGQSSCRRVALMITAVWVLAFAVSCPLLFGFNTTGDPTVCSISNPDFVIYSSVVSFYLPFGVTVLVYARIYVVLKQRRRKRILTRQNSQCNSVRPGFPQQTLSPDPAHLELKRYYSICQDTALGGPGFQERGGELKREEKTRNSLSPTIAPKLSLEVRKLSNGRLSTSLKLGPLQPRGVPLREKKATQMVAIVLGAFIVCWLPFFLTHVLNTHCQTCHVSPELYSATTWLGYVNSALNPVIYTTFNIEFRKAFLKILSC
P-gp (human MDR1-expressing cells), sequence (P08183 whole entry): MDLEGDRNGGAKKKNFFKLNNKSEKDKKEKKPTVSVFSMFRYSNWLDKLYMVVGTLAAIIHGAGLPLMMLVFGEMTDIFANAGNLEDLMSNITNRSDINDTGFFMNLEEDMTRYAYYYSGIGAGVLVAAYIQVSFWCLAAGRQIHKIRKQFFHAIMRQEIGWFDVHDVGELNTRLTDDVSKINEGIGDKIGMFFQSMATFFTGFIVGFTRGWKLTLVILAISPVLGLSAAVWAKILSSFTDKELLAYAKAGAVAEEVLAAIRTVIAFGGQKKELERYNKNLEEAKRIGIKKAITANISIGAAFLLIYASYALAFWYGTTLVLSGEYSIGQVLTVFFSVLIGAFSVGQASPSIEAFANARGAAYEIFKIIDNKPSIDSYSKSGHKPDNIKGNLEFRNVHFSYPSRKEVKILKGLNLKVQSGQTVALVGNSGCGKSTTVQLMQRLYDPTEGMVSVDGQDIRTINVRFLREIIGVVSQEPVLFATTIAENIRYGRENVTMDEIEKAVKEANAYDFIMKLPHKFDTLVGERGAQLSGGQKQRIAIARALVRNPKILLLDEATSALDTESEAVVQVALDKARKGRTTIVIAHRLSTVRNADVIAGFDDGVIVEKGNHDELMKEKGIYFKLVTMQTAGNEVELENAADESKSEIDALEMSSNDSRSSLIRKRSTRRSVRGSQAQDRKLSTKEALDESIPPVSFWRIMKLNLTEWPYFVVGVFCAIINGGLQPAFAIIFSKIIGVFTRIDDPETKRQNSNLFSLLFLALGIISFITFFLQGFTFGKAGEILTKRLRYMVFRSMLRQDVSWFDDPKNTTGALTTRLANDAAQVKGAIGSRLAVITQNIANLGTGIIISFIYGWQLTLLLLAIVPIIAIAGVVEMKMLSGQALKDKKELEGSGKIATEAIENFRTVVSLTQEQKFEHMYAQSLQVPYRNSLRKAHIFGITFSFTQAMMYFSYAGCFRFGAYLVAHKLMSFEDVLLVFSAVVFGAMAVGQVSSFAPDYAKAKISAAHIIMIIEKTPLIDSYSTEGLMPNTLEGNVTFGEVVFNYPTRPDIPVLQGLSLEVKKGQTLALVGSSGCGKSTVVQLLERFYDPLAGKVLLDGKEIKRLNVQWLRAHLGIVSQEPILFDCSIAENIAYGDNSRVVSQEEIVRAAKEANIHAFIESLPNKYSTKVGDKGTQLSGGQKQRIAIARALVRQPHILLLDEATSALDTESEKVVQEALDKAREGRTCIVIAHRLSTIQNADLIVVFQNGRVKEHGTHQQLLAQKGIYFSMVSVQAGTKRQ

As for `CCc1cc([C@]23C[C@H]2CN(CC[C@H]2CC[C@H](NC(=O)Cc4cnc(C)o4)CC2)C3)no1` [Compound I-052], the “P-gp ER ratio” value in data set [1] is on record as 2.4. The results for the Ki in data set [2] and in data set [3] were 0.58 nM and 920 nM, respectively.
`CCc1cc(C23CC2CN(CC[C@H]2CC[C@H](NC(=O)c4cccc5nn(C)cc45)CC2)C3)no1` (stereo partly drawn) [Compound I-034]: the “P-gp ER ratio” value in data set [1] is on record as 1.3. The Ki in data set [2] is 0.71 nM; in data set [3], 730 nM.
Take `Cc1ncc(CC(=O)N[C@H]2CC[C@H](CCN3CCN(c4nocc4C(C)(F)F)CC3)CC2)s1` [Compound I-014]: the figures for the Ki in data set [2] and in data set [3] were 0.2 nM and 88 nM, respectively.
The matching figures for `Cn1cc2c(C(=O)N[C@H]3CC[C@H](CCN4C[C@@H]5C[C@]5(c5cc(C(C)(F)F)on5)C4)CC3)cccc2n1` [Compound I-027]: 0.3 nM and greater than 1800 nM.
The corresponding values for `O=C(N[C@H]1CC[C@H](CCN2CCC(c3ccnn3-c3ccccc3)CC2)CC1)c1cccc2ncccc12` [Compound I-006] are 4 nM and 1100 nM.
The corresponding values for `O=C(N[C@H]1CC[C@H](CCN2CCC(c3nccn3-c3ccccn3)CC2)CC1)c1cccc2ncccc12` [Compound I-001] are 3.3 nM and greater than 1700 nM.
Regarding `CCC(F)(F)c1conc1C1CCN(CC[C@H]2CC[C@H](NC(=O)c3cccc4nn(C)cc34)CC2)CC1` [Compound I-016], the Ki in data set [2] is 0.085 nM; in data set [3], 33 nM.
For the molecule `Cn1cc2c(C(=O)N[C@H]3CC[C@H](CCN4CC5CC5(c5cc(C(F)F)on5)C4)CC3)cccc2n1` (stereo partly drawn) [Compound I-032], the Ki in data set [2] turned out to be 0.4 nM; in data set [3] it was 200 nM.
The matching figures for `Cn1cc2c(C(=O)N[C@H]3CC[C@H](CCN4CC5CC5(c5cc(C6CC6)on5)C4)CC3)cccc2n1` (stereo partly drawn) [II-2]: 0.2 nM and 380 nM.
The matching figures for `O=C(N[C@H]1CC[C@H](CCN2CCC(c3nocc3C3CC3)CC2)CC1)c1cccc2ncccc12` [Compound I-004]: 0.6 nM and 160 nM.
Turning to `CCc1cc([C@]23C[C@H]2CN(CC[C@H]2CC[C@H](NC(=O)Cc4cc(C)no4)CC2)C3)no1` [Compound I-055], the Ki worked out at 0.23 nM in data set [2] and 850 nM in data set [3].
The corresponding values for `Cn1cc2c(C(=O)N[C@H]3CC[C@H](CCN4CCC(c5nocc5C(F)(F)C5CC5)CC4)CC3)cccc2n1` [Compound I-018] are 0.22 nM and 45 nM.
Take `Cc1ncc(OCC(=O)N[C@H]2CC[C@H](CCN3C[C@@H]4C[C@]4(c4cc(C5CC5)on4)C3)CC2)cn1` [II-4]: the Ki in data set [2] came out at 0.45 nM; in data set [3], 730 nM.
The corresponding values for `CC(=O)c1conc1C1=CCN(CC[C@H]2CC[C@H](NC(=O)c3cccc4nn(C)cc34)CC2)CC1` [Compound I-023] are 0.69 nM and 1700 nM.
Turning to `CCn1c(C(=O)N[C@H]2CC[C@H](CCN3C[C@@H]4C[C@]4(c4cc(C(C)(F)F)on4)C3)CC2)cccc1=O` [Compound I-038], the values for the Ki in data set [2] and in data set [3] were 0.073 nM and 91 nM, respectively.
The corresponding values for `Cn1cc2c(C(=O)NN3CCC(CCN4C[C@@H]5C[C@]5(c5cc(C(C)(F)F)on5)C4)CC3)cccc2n1` [Compound I-035] are 0.24 nM and 870 nM.
For `Cc1cc(CC(=O)N[C@H]2CC[C@H](CCN3C[C@@H]4C[C@]4(c4cc(C(C)(F)F)on4)C3)CC2)on1` [Compound I-042], the Ki in data set [2] was determined as 0.061 nM; in data set [3], 1300 nM.
The corresponding values for `Cn1cc(CC(=O)N[C@H]2CC[C@H](CCN3C[C@@H]4C[C@]4(c4cc(C5CC5)on4)C3)CC2)cn1` [II-3] are 0.36 nM and 730 nM.
`O=C(N[C@H]1CC[C@H](CCN2CCC(c3nocc3-c3cccc(F)c3)CC2)CC1)c1cccc2ncccc12` [Compound I-003]: the Ki in data set [2] was found to be 0.093 nM; in data set [3], 36 nM.
The matching figures for `Cc1cc(C23CC2CN(CC[C@H]2CC[C@H](NC(=O)Cc4cnc(C)s4)CC2)C3)no1` (stereo partly drawn) [Compound I-031]: 3.8 nM and greater than 1800 nM.
The matching figures for `Cc1cc(CC(=O)N[C@H]2CC[C@H](CCN3CCC(c4nocc4C(C)(F)F)CC3)CC2)on1` [Compound I-008]: 0.69 nM and 350 nM.
With `CCc1cc([C@]23C[C@H]2CN(CC[C@H]2CC[C@H](NC(=O)COc4cnn(C)c4)CC2)C3)no1` [Compound I-048], the Ki in data set [2] was found to be 0.71 nM; in data set [3], 550 nM.
For the molecule `CCc1cc([C@]23C[C@H]2CN(CC[C@H]2CC[C@H](NC(=O)Cc4noc(C)n4)CC2)C3)no1` [Compound I-058], the figures for the Ki in data set [2] and in data set [3] were 1.3 nM and 790 nM, respectively.
With `Cc1ncc(CC(=O)N[C@H]2CC[C@H](CCN3CCC(c4nocc4C4CC4)CC3)CC2)s1` [Compound I-013], the Ki in data set [2] came to 0.95 nM; in data set [3], 230 nM.
The corresponding values for `Cc1ncc(CC(=O)N[C@H]2CC[C@H](CCN3CCC(c4nocc4C(C)(F)F)CC3)CC2)s1` [Compound I-010] are 0.65 nM and 230 nM.
Consider `Cn1cc2c(C(=O)N[C@H]3CC[C@H](CCN4CCC5(c6nocc6C(C)(F)F)CC5C4)CC3)cccc2n1` (stereo partly drawn) [Compound I-021], for which the Ki in data set [2] was determined as 4.8 nM; in data set [3] it was 1700 nM.
The matching figures for `Cn1ncc(CC(=O)N[C@H]2CC[C@H](CCN3C[C@@H]4C[C@]4(c4cc(C(C)(F)F)on4)C3)CC2)n1` [Compound I-039]: 0.39 nM and 300 nM.
The corresponding values for `Cn1cc(OCC(=O)N[C@H]2CC[C@H](CCN3C[C@@H]4C[C@]4(c4cc(C(C)(F)F)on4)C3)CC2)cn1` [Compound I-044] are 0.83 nM and 220 nM.
The corresponding values for `CCc1cc([C@]23C[C@H]2CN(CC[C@H]2CC[C@H](NC(=O)c4cccn5nccc45)CC2)C3)no1` [Compound I-057] are 0.47 nM and 230 nM.
